The values below come from US7947688B2, “N-[3-(3-substituted-pyrazolo[1,5-a]pyrimidin-7-yl)phenyl]-sulfonamides, and compositions, and methods related thereto” (Ferrer Internacional, S.A., priority 2003, dated 2011).

Usually inhibition stands for how much of the control response was suppressed.

The subject of one test is male CD1 mice. The test can be described thus: Predictive sedation-hypnosis test in mice (motor activity, crossings). It counts as in vivo. To be noted: single equimolecular intraperitoneal dose, crossings over 30 min after dosing (first 5 min discarded) versus control. How it is done:
• In vivo determination of predictive sedative-hypnotic action.
The in vivo effects of these compounds were assessed by a predictive sedation-hypnosis test in mice (D. J. Sanger et al., Eur. J. Pharmacol., 313, 35-42, 1996; and G. Griebel et al., Psychopharmacology, 146, 205-213, 1999). Groups of 5-8 male CD1 mice, weighing 22-26 g at the time of test, were used. The test compounds were administered in single equimolecular intraperitoneal doses, suspended in 0.25% agar with one drop of Tween in a volume of 10 ml/kg. Control animals received the vehicle alone. Using an Actisystem DAS16 (Panlab, S. L., Spain) the crossings (number of counts) were recorded for each mouse at 5-min intervals during a period of 30 minutes after dosing. The inhibition percentage of crossings of treated animals versus control animals (the first 5 min were discarded) was calculated.

A further test addresses α2-GABAA receptor (Rattus norvegicus, UniProt P18508+P23576). The test can be described thus: Ligand-binding assay, radiolabeled flumazenil competition, rat spinal cord membranes. To be noted: for inhibition at 10 µM: read-out: % Inhibition (10^−5 M), affinity for α2-GABAA receptor; for inhibition at 0.1 µM: read-out: % Inhibition (10^−7 M), affinity for α2-GABAA receptor. The procedure:
Determination of the affinity of test compounds for α1- and α2-GABAA receptor.
Male Sprague-Dawley rats weighing 200-250 g at the time of experiment were used. After decapitation of the animal, the cerebellum (tissue that mostly contains α1-GABAA receptor) and spinal cord (tissue that mostly contains α2-GABAA receptor) were removed. The membranes were prepared according to the method by J. Lameh et al. (Prog. Neuro-Psychopharmacol. Biol. Psychiatry, 24, 979-991, 2000). Once the tissues weighed, they were suspended in 50 mM Tris.HCl (pH 7.7), 1:40 (v/v), homogenized and then centrifuged at 20000 g for 10 min at 7° C. The resulting pellet was resuspended under the same conditions and centrifuged again. The pellet was finally resuspended on a minimum volume and kept at −80° C. overnight. On the next day, the process was repeated until the final pellet was resuspended at a ratio of 1:10 (v/v).
Affinity was determined by competitive tests using radiolabeled flumazenil as ligand. The tests were performed according to the methods described by S. Arbilla et al. (Eur. J. Pharmacol., 130, 257-263, 1986); and Y. Wu et al. (Eur. J. Pharmacol., 278, 125-132, 1995). The membranes containing the study receptors, flumazenil (radiolabeling at a final concentration of 1 nM) and ascending concentrations of test compounds (in a total volume of 500 μl in […] [ph 7.4] Tris.HCl buffer) were incubated. Simultaneously, the membranes were only incubated with the radiolabeled flumazenil (total binding, 100%) and in the presence of an elevated concentration of unradiolabeled flumazenil (non-specific binding, % estimation of radiolabeled ligand). The reactions started on adding the radiolabeled ligand followed by incubation for 60 minutes at 0° C. At the end of the incubation period, the tubes were filtered using a Brandel Mod. M-48R harvester and then washed three times with cold test buffer. The harvester was fitted with a GF/B filter that retained the membranes containing the receptors and the radiolabeled ligand which had been bound to the receptors. Then the filters were removed and left till dry. Once dried, the filters were cut, placed in vials with scintillation liquid and left under stirring overnight. The next day the filters were counted using a Packard Mod. Tricarb scintillation counter.
X: amount of bound ligand for every concentration of compound.
T: total binding, maximum amount bound to the radiolabeled ligand.
N: non-specific binding, amount of radiolabeled ligand bound in a non-specific way irrespective of the receptor used.
Every concentrations of compound were tested in duplicate and their mean values were used to determine the experimental values of % specific binding versus the concentration of compound. […] Inhibition constants (Ki) were calculated from the IC50 values according to Cheng-Prusoff's formula (Y. Cheng y W. H. Prusoff, Biochem. Pharmacol., 22(23), 3099-3108, 1973).

Molecules are shown by their SMILES.

For `CCN(c1cccc(-c2ccnc3c(C#N)cnn23)c1)S(C)(=O)=O` [Example 5, N-[3-(3-cyano-pyrazolo[1,5-a]pyrimidin-7-yl)-phenyl]-N-ethyl-methanesulfonamide], in the test on male CD1 mice, the “% Motor Activity Inhibition” value is on record as 80.91%.

`CCN(c1cccc(-c2ccnc3c(C(=O)c4cccs4)cnn23)c1)S(C)(=O)=O` [Example 6, N-ethyl-N-{3-[3-(thiophene-2-carbonyl)-pyrazolo[1,5-a]pyrimidin-7-yl]-phenyl}-methanesulfonamide]: the “% Motor Activity Inhibition” value in the test with male CD1 mice is recorded as 66.55%.

On to `C#CCN(c1cccc(-c2ccnc3c(C(=O)c4cccs4)cnn23)c1)S(C)(=O)=O` [Example 16, N-2-propynyl-N-{3-[3-(thiophene-2-carbonyl)-pyrazolo[1,5-a]pyrimidin-7-yl]-phenyl}-methanesulfonamide], for which the “% Motor Activity Inhibition” value with male CD1 mice is reported as 95.36%.

`CCCN(c1cccc(-c2ccnc3c(C(=O)c4cccs4)cnn23)c1)S(=O)(=O)CC` [Example 17, N-propyl-N-{3-[3-(thiophene-2-carbonyl)-pyrazolo[1,5-a]pyrimidin-7-yl]-phenyl}-ethanesulfonamide]: at α2-GABAA receptor, the inhibition at 10 µM was 74.5% and the inhibition at 0.1 µM was 0%. Also, in the test on male CD1 mice, the “% Motor Activity Inhibition” value was 94.21%.

On to `CCN(c1cccc(-c2ccnc3c(C(=O)c4cccs4)cnn23)c1)S(=O)(=O)CC` [Example 18, N-ethyl-N-{3-[3-(thiophene-2-carbonyl)-pyrazolo[1,5-a]pyrimidin-7-yl]-phenyl}-ethanesulfonamide], for which, at α2-GABAA receptor, the inhibition at 10 µM was found to be 93.7% and the inhibition at 0.1 µM was determined as 20.7%. Besides, the “% Motor Activity Inhibition” value with male CD1 mice was 93.39%.

As to `C#CCN(c1cccc(-c2ccnc3c(C(=O)c4cccs4)cnn23)c1)S(=O)(=O)C(C)C` [Example 19, N-2-propynyl-N-{3-[3-(thiophene-2-carbonyl)-pyrazolo[1,5-a]pyrimidin-7-yl]-phenyl}-2-propanesulfonamide], at α2-GABAA receptor, the inhibition at 10 µM came to 94.4% and the inhibition at 0.1 µM came to 45.2%. Besides, the “% Motor Activity Inhibition” value in the test with male CD1 mice was 89.88%.

Consider `CCS(=O)(=O)N(C)c1cccc(-c2ccnc3c(C(=O)c4cccs4)cnn23)c1` [Example 20, N-methyl-N-{3-[3-(thiophene-2-carbonyl)-pyrazolo[1,5-a]pyrimidin-7-yl]-phenyl}-ethanesulfonamide], for which, at α2-GABAA receptor, the inhibition at 10 µM was determined as 97.7% and the inhibition at 0.1 µM came out at 40.3%. Further, in the test on male CD1 mice, the “% Motor Activity Inhibition” value is on record as 95.23%.

On to `O=C(c1cccs1)c1cnn2c(-c3cccc(N4CCCS4(=O)=O)c3)ccnc12` [Example 22, 7-(3-(2-isothiazolidinyl-1,1-dioxide)-phenyl)-3-(thiophene-2-carbonyl)-pyrazolo[1,5-a]pyrimidine], for which, on α2-GABAA receptor, the inhibition at 10 µM came out at 98.2% and the inhibition at 0.1 µM was found to be 24.2%. In addition, the “% Motor Activity Inhibition” value with male CD1 mice is 91.39%.

As for `CC(C)S(=O)(=O)N(C)c1cccc(-c2ccnc3c(C(=O)c4cccs4)cnn23)c1` [Example 23, N-methyl-N-{3-[3-(thiophene-2-carbonyl)-pyrazolo[1,5-a]pyrimidin-7-yl]-phenyl}-2-propane-sulfonamide], at α2-GABAA receptor, the inhibition at 10 µM came out at 93.8% and the inhibition at 0.1 µM stood at 45.5%. The “% Motor Activity Inhibition” value in the test on male CD1 mice was 94.57%.

Turning to `CCN(c1cccc(-c2ccnc3c(C(=O)c4cccs4)cnn23)c1)S(=O)(=O)C(C)C` [Example 24, N-ethyl-N-{3-[3-(thiophene-2-carbonyl)-pyrazolo[1,5-a]pyrimidin-7-yl]-phenyl}-2-propane-sulfonamide], on α2-GABAA receptor, the inhibition at 10 µM amounted to 83% and the inhibition at 0.1 µM came out at 10.4%. Further, in the test on male CD1 mice, the “% Motor Activity Inhibition” value was 94.01%.

Consider `CCCN(c1cccc(-c2ccnc3c(C(=O)c4cccs4)cnn23)c1)S(=O)(=O)C(C)C` [Example 25, N-propyl-N-{3-[3-(thiophene-2-carbonyl)-pyrazolo[1,5-a]pyrimidin-7-yl]-phenyl}-2-propane-sulfonamide], for which, at α2-GABAA receptor, the inhibition at 10 µM came out at 78.9% and the inhibition at 0.1 µM stood at 9.1%. In the test with male CD1 mice, the “% Motor Activity Inhibition” value was 92.79%.

As for `C#CCN(c1cccc(-c2ccnc3c(C#N)cnn23)c1)S(C)(=O)=O` [Example 27, N-[3-(3-cyano-pyrazolo[1,5-a]pyrimidin-7-yl)-phenyl]-N-2-propynyl-methanesulfonamide], on α2-GABAA receptor, the inhibition at 10 µM was 85.2% and the inhibition at 0.1 µM was determined as 2.9%. Also, in the test on male CD1 mice, the “% Motor Activity Inhibition” value is 93.12%.

As for `CCN(c1cccc(-c2ccnc3c(C#N)cnn23)c1)S(=O)(=O)CC` [Example 29, N-[3-(3-cyano-pyrazolo[1,5-a]pyrimidin-7-yl)-phenyl]-N-ethyl-ethanesulfonamide], on α2-GABAA receptor, the inhibition at 10 µM came to 92.7% and the inhibition at 0.1 µM is 13.4%. Further, the “% Motor Activity Inhibition” value in the test on male CD1 mice was 93.73%.

Consider `C#CCN(c1cccc(-c2ccnc3c(C#N)cnn23)c1)S(=O)(=O)C(C)C` [Example 30, N-[3-(3-cyano-pyrazolo[1,5-a]pyrimidin-7-yl)-phenyl]-N-2-propynyl-propane-2-sulfonamide], for which, on α2-GABAA receptor, the inhibition at 10 µM came to 73.3% and the inhibition at 0.1 µM worked out at 0%. Moreover, in the test on male CD1 mice, the “% Motor Activity Inhibition” value was 94.86%.

In the case of `N#Cc1cnn2c(-c3cccc(N4CCCS4(=O)=O)c3)ccnc12` [Example 33, 7-(3-(2-isothiazolidinyl-1,1-dioxide)-phenyl)-3-cyano-pyrazolo[1,5-a]pyrimidine], at α2-GABAA receptor, the inhibition at 10 µM is 45.2% and the inhibition at 0.1 µM is 0%. Besides, the “% Motor Activity Inhibition” value in the test on male CD1 mice was 77.58%.

For the compound `CC(C)S(=O)(=O)N(C)c1cccc(-c2ccnc3c(C#N)cnn23)c1` [Example 34, N-[3-(3-cyano-pyrazolo[1,5-a]pyrimidin-7-yl)-phenyl]-N-methyl-2-propanesulfonamide], on α2-GABAA receptor, the inhibition at 10 µM was 87.6% and the inhibition at 0.1 µM came to 6.9%. The “% Motor Activity Inhibition” value in the test on male CD1 mice is 92.58%.

`CCN(c1cccc(-c2ccnc3c(C#N)cnn23)c1)S(=O)(=O)C(C)C` [Example 35, N-[3-(3-cyano-pyrazolo[1,5-a]pyrimidin-7-yl)-phenyl]-N-ethyl-2-propanesulfonamide]: on α2-GABAA receptor, the inhibition at 10 µM was found to be 86.5% and the inhibition at 0.1 µM was 24.5%. For the same compound, in the test on male CD1 mice, the “% Motor Activity Inhibition” value was 92.55%.

Take `CCCN(c1cccc(-c2ccnc3c(C#N)cnn23)c1)S(=O)(=O)C(C)C` [Example 37, N-[3-(3-cyano-pyrazolo[1,5-a]pyrimidin-7-yl)-phenyl]-N-propyl-2-propanesulfonamide]: on α2-GABAA receptor, the inhibition at 10 µM turned out to be 40.2% and the inhibition at 0.1 µM turned out to be 0%. For the same compound, the “% Motor Activity Inhibition” value in the test on male CD1 mice is 92.13%.

In the case of `C#CCN(c1cccc(-c2ccnc3c(C#N)cnn23)c1)S(=O)(=O)CC` [Example 38, N-[3-(3-cyano-pyrazolo[1,5-a]pyrimidin-7-yl)-phenyl]-N-2-propynyl-ethanesulfonamide], at α2-GABAA receptor, the inhibition at 10 µM amounted to 77.6% and the inhibition at 0.1 µM was found to be 17.4%. Besides, the “% Motor Activity Inhibition” value in the test on male CD1 mice is listed as 94.85%.

Take `CN(c1cccc(-c2ccnc3c(C(=O)c4ccccn4)cnn23)c1)S(C)(=O)=O` [Example 39, N-methyl-N-{3-[3-(pyridin-2-carbonyl)-pyrazolo[1,5-a]pyrimidin-7-yl]-phenyl}-methanesulfonamide]: at α2-GABAA receptor, the inhibition at 10 µM was determined as 96.6% and the inhibition at 0.1 µM came to 23.3%. Besides, in the test with male CD1 mice, the “% Motor Activity Inhibition” value is 95.28%.

For the compound `CCN(C(C)=O)c1cccc(-c2ccnc3c(C#N)cnn23)c1` [Zaleplon, reference compound], in the test with male CD1 mice, the “% Motor Activity Inhibition” value is 47.17%.
